In patent US11858958B2, “Blank liposome with ginsenoside Rg3 or its analog as membrane materials and preparations and uses thereof” (Shanghai Ginsome Pharmatech Co., Ltd., priority 2018, dated 2024):
Values joined by “and” are separate entries in the source; they are usually repeats but may differ in a detail not shown here. Identical values can stand only once.

Legend:
[1] = tested on: human breast cancer cell line (4T1); experiment: In vitro cytotoxicity studies (DTX groups); format: cell-based
Method: For each concentration group, 4 replicates were set up. The whole experiment was independently repeated 3 times.
The in vitro cytotoxicity was evaluated using human breast cancer cell line (4T1).

[2] = in words; cited from earlier work
[3] = tested on: in-situ glioma model (C6 cells); experiment: Survival curve and median survival day; format: in vivo, nude mice
[4] = tested on: rat C6 glioma cells; experiment: In vitro drug efficiency assay, survival rate of glioma cells; format: cell-based
[5] = tested on: human gastric cancer cell (BGC-823); experiment: In vivo pharmacological efficacy assay, relative tumor volume; design: species or system nude mice
Method: 2. In vivo pharmacological efficacy assay: A total of 72 subcutaneous tumor-bearing nude mice were randomerized into 8 groups (9 in each group), and intravenously injected with PBS solution (Control group,), Rg3, Rg3-blank, PTX-Cho-Lipo, Abraxane, PTX-Rg5-Gipo, PTX-Rg3-Gipo and PTX-Rh2-Gipo, via tail vein at a dose of 10 mg·kg^1. The changes of mice body weights in each group were recorded every 2 days, and the longest diameter and the shortest diameter of tumors were measured with vernier calipers. The tumor volume is calculated by the following formula: V=(dmax×dmin^2)/2, wherein dmin and dmax are respectively the shortest diameter and the longest diameter (mm) of the tumor; a relative tumor volume (RTV) is calculated according to the measurement results by the formula: RTV=TVn/TV0,
wherein TVn is the volume of the tumor measured every 2 days, TV0 is the volume of the tumor measured at day zero (the administration day).

[6] = tested on: human breast cancer cell line (4T1); experiment: In vitro drug efficacy assay, cell survival rate (Rh2/PTX groups)
Method: Logarithmically growing tumor cells were collected and resuspended in DMEM complete medium supplemented with 10% fetal bovine serum, 100 U/ml penicillin and 100 μg/ml streptomycin to a final cell density of 4×10^4 cells/ml. Then, 200 μl cell suspension solution was seeded into each well of a 96-well plate (with a concentration of 8×10^3 cells/well) and the plate was cultured in a CO2 cell culture incubator at 37° C. […] The group without replacing DMEM complete medium by anti-cancer drug solution was used as negative control. For each concentration group, 4 replicates were set up. The whole experiment was independently repeated 3 times. The cells were continuously cultured in a CO2 cell culture incubator at 37° C. […] Then discarded the supernatant, added 150 μl DMSO into each well, and shaked the plate for 10 min. The absorbance was measured at 490 nm using a microplate reader (Tecan infinite M 200 TECAN, Switzerland). The cell survival rate is calculated according to the following formula:

[7] = tested on: human breast cancer cell 4T1; experiment: In vivo drug efficacy assay, relative tumor volume (Rh2/PTX groups); design: species or system nude mice; settings: 4T1, tail vein 30 mg/kg
Method: To evaluate the drug efficacy in vivo, 45 subcutaneous tumor-bearing nude mice were randomized into 5 treatment groups (9 in each group) and intravenously injected with PBS solution (control group), ginsenoside Rh2 (Rh2 group), ginsenoside Rh2 blank liposome (Rh2-Blank group), conventional paclitaxel cholesterol liposome (PTX-Cho-Lipo group) and ginsenoside Rh2 paclitaxel liposome (PTX-Rh2-Gipo group) via tail vein at a dose of 30 mg/kg. The changes of body weights of mice in each group were recorded every 2 days, and the longest diameter and the shortest diameter of tumors were measured with vernier calipers. The tumor volume was calculated by the following formula: V=(dmax×dmin^2)/2, wherein dmin and dmax are respectively the shortest diameter and the longest diameter (mm) of the tumor; a relative tumor volume (RTV) was calculated according to the measurement results, by the formula: RTV=TVn/TV0, […], TV0 is the volume of the tumor measured at day zero (the administration day).

CC(=O)O[C@@]12CO[C@@H]1C[C@H](O)[C@@]1(C)C(=O)[C@H](O)C3=C(C)[C@@H](OC(=O)[C@H](O)[C@@H](NC(=O)OC(C)(C)C)c4ccccc4)C[C@@](O)([C@@H](OC(=O)c4ccccc4)[C@H]21)C3(C)C [DTX, docetaxel]
Cell viability(%) ([1]; 4T1, Concentration 3.84E−05 μg/ml): 83.55% | Cell viability(%) ([1]; 4T1, Concentration 7.68E−06 μg/ml): 86.66% | viability at 0.00019 µg/mL ([1]; Homo sapiens, 4T1, Concentration 0.00019 μg/ml): 72.5% | viability at 0.00096 µg/mL ([1]; Homo sapiens, 4T1, Concentration 0.00096 μg/ml): 61.6% | viability at 0.0048 µg/mL ([1]; Homo sapiens, 4T1, Concentration 0.0048 μg/ml): 50.9% | viability at 0.024 µg/mL ([1]; Homo sapiens, 4T1, Concentration 0.024 μg/ml): 49.9% | viability at 0.12 µg/mL ([1]; Homo sapiens, 4T1, Concentration 0.12 μg/ml): 46.3% | viability at 0.6 µg/mL ([1]; Homo sapiens, 4T1, Concentration 0.6 μg/ml): 48.9% | viability at 3 µg/mL ([1]; Homo sapiens, 4T1, Concentration 3 μg/ml): 51.9%

CC(C)=CCC[C@](C)(O)[C@H]1CC[C@]2(C)[C@@H]1[C@H](O)C[C@@H]1[C@@]3(C)CC[C@H](O[C@@H]4O[C@H](CO)[C@@H](O)[C@H](O)[C@H]4O[C@@H]4O[C@H](CO)[C@@H](O)[C@H](O)[C@H]4O)C(C)(C)[C@@H]3CC[C@]12C [Rg3, Ginsenoside 20(S)-Rg3]
solubility in diethyl ether and chloroform [2]: insoluble in diethyl ether and chloroform | solubility in methanol and ethanol [2]: soluble in methanol and ethanol | solubility in water [2]: poorly soluble in water | Median survial ([3]; tail vein 10 mg·kg^−1): 29 days and 32 days | number of survived mice ([3]; tail vein 10 mg·kg^−1, Time 12 d): 10 | number of survived mice ([3]; tail vein 10 mg·kg^−1, Time 14 d): 10 | number of survived mice ([3]; tail vein 10 mg·kg^−1, Time 16 d): 9 | number of survived mice ([3]; tail vein 10 mg·kg^−1, Time 18 d): 9 | number of survived mice ([3]; tail vein 10 mg·kg^−1, Time 20 d): 8 | number of survived mice ([3]; tail vein 10 mg·kg^−1, Time 22 d): 7 | number of survived mice ([3]; tail vein 10 mg·kg^−1, Time 24 d): 7 | number of survived mice ([3]; tail vein 10 mg·kg^−1, Time 26 d): 6 | number of survived mice ([3]; tail vein 10 mg·kg^−1, Time 28 d): 5 | number of survived mice ([3]; tail vein 10 mg·kg^−1, Time 30 d): 4 | number of survived mice ([3]; tail vein 10 mg·kg^−1, Time 32 d): 4 | number of survived mice ([3]; tail vein 10 mg·kg^−1, Time 34 d): 3 | number of survived mice ([3]; tail vein 10 mg·kg^−1, Time 36 d): 3 | number of survived mice ([3]; tail vein 10 mg·kg^−1, Time 38 d): 2 | number of survived mice ([3]; tail vein 10 mg·kg^−1, Time 40 d): 1 | number of survived mice ([3]; tail vein 10 mg·kg^−1, Time 42 d): 0 | number of survived mice ([3]; tail vein 10 mg·kg^−1, Time 44 d): 0 | number of survived mice ([3]; tail vein 10 mg·kg^−1, Time 46 d): 0 | number of survived mice ([3]; tail vein 10 mg·kg^−1, Time 48 d): 0 | number of survived mice ([3]; tail vein 10 mg·kg^−1, Time 50 d): 0 | number of survived mice ([3]; tail vein 10 mg·kg^−1, Time 52 d): 0 | number of survived mice ([3]; tail vein 10 mg·kg^−1, Time 54 d): 0 | number of survived mice ([3]; tail vein 10 mg·kg^−1, Time 56 d): 0 | number of survived mice ([3]; tail vein 10 mg·kg^−1, Time 58 d): 0 | number of survived mice ([3]; tail vein 10 mg·kg^−1, Time 60 d): 0 | number of survived mice ([3]; tail vein 10 mg·kg^−1, Time 62 d): 0 | Cell Viability ([4]; C6, C 0.001 μg/ml (Table 10)): 100 | Cell Viability ([4]; C6, C 0.003 μg/ml (Table 10)): 98.82 | Cell Viability ([4]; C6, C 0.01 μg/ml (Table 10)): 92.42 | Cell Viability ([4]; C6, C 0.03 μg/ml (Table 10)): 92.03 | Cell Viability ([4]; C6, C 0.08 μg/ml (Table 10)): 94.23 | Cell Viability ([4]; C6, C 0.25 μg/ml (Table 10)): 95.43 | Cell Viability ([4]; C6, C 0.74 μg/ml (Table 10)): 92.822 | Cell Viability ([4]; C6, C 2.22 μg/ml (Table 10)): 96.16 | Cell Viability ([4]; C6, C 6.67 μg/ml (Table 10)): 95.02 | Cell Viability ([4]; C6, C 20 μg/ml (Table 10)): 89.02 | Relative tumor volume ([5]; BGC-823, tail vein 10 mg·kg^1, time 1 d): 166.88 | Relative tumor volume ([5]; BGC-823, tail vein 10 mg·kg^1, time 3 d): 267.38 | Relative tumor volume ([5]; BGC-823, tail vein 10 mg·kg^1, time 5 d): 317.96 | Relative tumor volume ([5]; BGC-823, tail vein 10 mg·kg^1, time 7 d): 417.96 | Relative tumor volume ([5]; BGC-823, tail vein 10 mg·kg^1, time 9 d): 717.96 | Relative tumor volume ([5]; BGC-823, tail vein 10 mg·kg^1, time 11 d): 1340.69 | Relative tumor volume ([5]; BGC-823, tail vein 10 mg·kg^1, time 13 d): 1636.89 | Relative tumor volume ([5]; BGC-823, tail vein 10 mg·kg^1, time 15 d): 2034.43 | Relative tumor volume ([5]; BGC-823, tail vein 10 mg·kg^1, time 17 d): 2034.43 | Relative tumor volume ([5]; BGC-823, tail vein 10 mg·kg^1, time 19 d): 2034.43 | Relative tumor volume ([5]; BGC-823, tail vein 10 mg·kg^1, time 21 d): 2034.43 | Relative tumor volume ([5]; BGC-823, tail vein 10 mg·kg^1, time 23 d): 2034.43

CC(C)=CCC[C@](C)(O)[C@H]1CC[C@]2(C)[C@@H]1[C@H](O)C[C@@H]1[C@@]3(C)CC[C@H](O[C@@H]4O[C@H](CO)[C@@H](O)[C@H](O)[C@H]4O)C(C)(C)[C@@H]3CC[C@]12C [Rh2, ginsenoside Rh2]
solubility in diethyl ether and chloroform [2]: insoluble in diethyl ether and chloroform | solubility in methanol and ethanol [2]: soluble in methanol and ethanol | solubility in water [2]: poorly soluble in water | Cell Viability ([6]; 4T1, C 0.00366 μM): 104.04 | Cell Viability ([6]; 4T1, C 0.01097 μM): 92.85 | Cell Viability ([6]; 4T1, C 0.03292 μM): 94.47 | Cell Viability ([6]; 4T1, C 0.09877 μM): 99.90 | Cell Viability ([6]; 4T1, C 0.29630 μM): 98.07 | Cell Viability ([6]; 4T1, C 0.88889 μM): 96.04 | Cell Viability ([6]; 4T1, C 2.66667 μM): 104.25 | Cell Viability ([6]; 4T1, C 8.00000 μM): 100.73 | activity in vitro against human breast cancer cells (4T1) ([6]; in words): low activity | Relative tumor volume ([7]; time 0 d): 100.00 | Relative tumor volume ([7]; time 3 d): 200.94 | Relative tumor volume ([7]; time 6 d): 316.69 | Relative tumor volume ([7]; time 9 d): 276.04 | Relative tumor volume ([7]; time 12 d): 400.20 | Relative tumor volume ([7]; time 15 d): 473.53 | Relative tumor volume ([7]; time 18 d): 510.20 | Relative tumor volume ([7]; time 21 d): 898.52
